Assay results: patent US20230346831A1, “METHODS FOR TREATING […] USING LOW DOSE CARBON MONOXIDE” (priority 2020, published 2023)

Experiments:
N134/RHAMM^B cells = test: tail vein liver metastasis model; assay type: in vivo; details: 1.5 × 10^6 N134/RHAMM^B cells tail vein, NSG mice, 250 ppm CO 3 hours daily, 24 days
Protocol: NSG mice were injected with 0.1 million (FIGS. 3A-3B) or 5 × 10^4 (FIGS. 3C-3E) MDA-MB-231/TGL breast cancer cells through tail vein or 8988T/TGL pancreatic cancer cells through spleen (FIGS. 3F-3H). Mice were randomly divided into two groups after injection. One group of mice was kept in regular mouse holding room all the time while the other group was treated with 250 ppm CO for 3 hours daily starting one day after injection. FIGS. 3C and 3F: bioluminescent imaging was taken at day 0, day 1, day3 and then once a week and signals from the whole mice were plotted. FIGS. 3A, 3D and 3G: organs were harvested for histological analysis. Representative H&E stained images of metastatic tumors in the lung sections (FIGS. 3A and 3D) and in the liver sections (FIG. 3G) were shown. Metastatic tumor areas or numbers of mets on the H&E stained sections for each mouse were quantified (FIGS. 3B, 3E and 3H).
In another experiment, immunodeficient NOD/scid-IlL2Rgc knockout mice were injected with 1.5 × 10^6 N134/RHAMM^B cells in 120 µl PBS via tail veins. Tumors developed 24 days after injection with 1.5 × 10^6 N134/RHAMM^B cells, and livers were assessed.

HCP1 = test: quantitative real-time reverse transcription PCR; assay type: cell-based, human; details: MCF7/TGL and MDA-MB-231/TGL cells; 250 ppm CO
Protocol: (§1) mRNA was isolated from cells (MCF7/TGL and MDA-MB-231/TGL) grown on 6-cm dishes using RNeasy mini kit (Qiagen, Hilden, Germany) containing gDNA Eliminator spin columns. cDNA was generated using the SuperScript III First-strand synthesis system with random hexamers (Invitrogen, Carlsbad, CA), and power SYBR green (Invitrogen, Carlsbad, CA)-based quantitative real-time PCR was performed using primer specific for HRG1 (human, forward: 5′- […] -3′ (SEQ ID NO: 1), reverse: 5′- […] -3′ (SEQ ID NO: 2)) or HCP1 (human forward: 5′- […] -3′ (SEQ ID NO: 3), reverse: 5′-[…] -3′ (SEQ ID NO: 4)), CYP1B1 (human, forward: 5′TGAGTGCCGTGTGTTTCGG -3′ (SEQ ID NO: 5), reverse: 5′-[…] -3′ (SEQ ID NO: 6)), SP1 (human, forward: 5′-GTGGCCGCTACCTTCACTG -3′ (SEQ ID NO: 7), reverse: 5′-GCCCCACTCCTACTTGGTC -3′ (SEQ ID NO: 8)) with the comparative CT method (ΔΔCT; ABI).
(§2) To investigate how CO reduces heme levels, whether CO decreased the transportation of heme into the cytosol was examined. […] Furthermore, heme oxygenases (HO-1, HO-2, and HO-3) cleave heme into 3 products: CO, ferrous ions (Fe2+), and biliverdin. […] Likewise, changes in protein levels of Bach 1 (a physiological repressor of HO-1 and a pro-metastatic transcription factor, whose degradation is reported to be mediated by heme in Nrf2-mutated lung cancer) was not detected (FIG. 4E). […]

HRG1 = test: quantitative real-time reverse transcription PCR; assay type: cell-based, human; details: MCF7/TGL and MDA-MB-231/TGL cells; 250 ppm CO
Protocol: as §1, §2

[1] = system: oxygen consumption / mitochondrial respiration; test: Seahorse XF Cell Mito Stress Test; assay type: cell-based, human
Description: In particular, MDA-MB-231/TGL and MCF7/TGL/PQ cells treated with carbon monoxide met their energetic needs at the same rate as untreated control cells. […] In particular, MDA-MB-231/TGL and MCF7/TGL/PQ cells treated with carbon monoxide stimulated their mitochondrial respiratory chains at the same rate as untreated control cells.
The heme group confers functionality to multiple proteins, which can include oxygen carrying, oxygen reduction, electron transfer, and other processes. To determine whether the decrease of heme levels impacts levels of oxygen-utilizing hemoproteins and therefore reduces oxygen consumption, oxygen consumption rates (OCR) was measured. However, lower OCR after 16 hours in 250 ppm CO was not detected using Seahorse XF Cell Mito Stress Tests in MCF7 and MDA-MB-231 (data not shown).

[2] = MDA-MB-231 and MCF7 cells, low dose carbon monoxide

[C-]#[O+] [CO, Carbon monoxide]
total metastatic pancreatic tumor burden in the liver (N134/RHAMM^B cells): showed a trend to reduce | liver metastases (N134/RHAMM^B cells; vs untreated controls): reduced | HCP1 mRNA expression (HCP1): reduced | HRG1 mRNA expression (HRG1): reduced | lower oxygen consumption rates (OCR) ([1]; MCF7 and MDA-MB-231, after 16 hours in 250 ppm CO, data not shown): not detected | mitochondrial spare respiratory capacity ([1]; MDA-MB-231 and MCF7 cells, carbon monoxide treatment): improved | mitochondrial ATP production [1, 2]: did not affect | stress-induced mitochondrial maximum respiration [1, 2]: did not affect
